Results reported in patent US9174997B2, “4-(4-cyano-2-thioaryl)dihydropyrimidinones and use thereof” (Bayer Intellectual Property GmbH, priority 2007, dated 2015).

Experiments:
[1] = target: human neutrophil elastase (HNE) (Homo sapiens (Human), UniProt P08246); assay: In vitro HNE inhibition assay; type: biochemical; settings: HNE concentration of 80 pM; substrate MeOSuc-Ala-Ala-Pro-Val-AMC; 37° C. for 2 hours
Method: B-1. In Vitro HNE Inhibition Assay
The potency of the compounds of the invention is ascertained in an in vitro inhibition assay. The HNE-mediated amidolytic cleavage of a suitable peptide substrate leads in this connection to an increase in the fluorescent light. The signal intensity of the fluorescent light is directly proportional to the enzyme activity.
Enzyme ([…]; from Serva, Heidelberg) and substrate (20 μM MeOSuc-Ala-Ala-Pro-Val-AMC; from Bachem, Weil am Rhein) are incubated in an assay volume of in total 50 μl of assay buffer (0.1 M HEPES pH 7.4, 0.5 M NaCl, 0.1% w/v BSA, 1% v/v DMSO) in a 384-well microtiter plate in the presence and absence of the test substance at 37° C. for 2 hours. […] The IC50 values are determined by plotting the intensity of the fluorescent light against the active substance concentration.

rat hepatocytes = assay: Hepatocyte assay to determine the metabolic stability; type: in vitro ADME; settings: after incubation with rat hepatocytes
Method: B-6. Hepatocyte Assay to Determine the Metabolic Stability
The metabolic stability of test compounds in the presence of hepatocytes is determined by incubating the compounds with low concentrations (preferably below or around 1 μM) and with low cell counts (preferably 1*10^6 cells/ml) in order to ensure as far as possible linear kinetic conditions in the experiment. Seven samples of the incubation solution are taken in a fixed time pattern for the […] analysis in order to determine the half-life (i.e. the degradation) of the compound in each case. Various clearance parameters (CL) and Fmax values are calculated from this half-life (see below).
The Cl and Fmax values represent a measure of the phase 1 and phase 2 metabolism of the compounds in the hepatocytes. In order to minimize the influence of the organic solvent on the enzymes in the incubation mixtures, this concentration is generally limited to 1% (acetonitrile) or 0.1% (DMSO).
A cell count for hepatocytes in the liver of 1.1*10^8 cells/g of liver is used for calculation for all species and breeds.
The calculated parameters and their meaning are:
Representative values for the compounds according to the invention from this assay after incubation of the compounds with rat hepatocytes are shown in Table B below: […]

human neutrophil elastase (HNE), sequence (P08246 30-267): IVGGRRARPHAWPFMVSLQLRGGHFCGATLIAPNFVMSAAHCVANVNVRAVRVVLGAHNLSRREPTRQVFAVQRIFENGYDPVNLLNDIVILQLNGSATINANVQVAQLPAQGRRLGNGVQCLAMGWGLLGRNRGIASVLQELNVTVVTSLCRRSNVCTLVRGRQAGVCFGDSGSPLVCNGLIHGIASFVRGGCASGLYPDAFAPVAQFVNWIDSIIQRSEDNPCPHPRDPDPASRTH

Structure (SMILES)	IC50 [1] [nM]	CLblood, calculated blood clearance (well stirred model) (rat hepatocytes) [L/h/kg]	Fmax, maximum possible bioavailability after oral administration (well-stirred) (rat hepatocytes) [%]
CC1=C(C#N)[C@@H](c2ccc(C#N)cc2S(C)(=O)=O)N(CC(N)=O)C(=O)N1c1cccc(C(F)(F)F)c1 [Example 22, 2-[(6S)-5-Cyano-6-[4-cyano-2-(methylsulfonyl)phenyl]-4-methyl-2-oxo-3-[3-(trifluoromethyl)phenyl]-3,6-dihydropyrimidin-1(2H)-yl]acetamide]	0.45	0.2	95
CC1=C(C#N)[C@@H](c2ccc(C#N)cc2S(C)(=O)=O)N(S(C)(=O)=O)C(=O)N1c1cccc(C(F)(F)F)c1 [Example 27, (4S)-4-[4-Cyano-2-(methylsulfonyl)phenyl]-6-methyl-3-(methylsulfonyl)-2-oxo-1-[3-(trifluoromethyl)phenyl]-1,2,3,4-tetrahydropyrimidine-5-carbonitrile]	< 0.3	0.4	91
CC1=C(C#N)[C@@H](c2ccc(C#N)cc2S(C)(=O)=O)N(S(=O)(=O)C2CC2)C(=O)N1c1cccc(C(F)(F)F)c1 [Example 32, (4S)-4-[4-Cyano-2-(methylsulfonyl)phenyl]-6-methyl-3-(cyclopropylsulfonyl)-2-oxo-1-[3-(trifluoromethyl)phenyl]-1,2,3,4-tetrahydropyrimidine-5-carbonitrile]	< 0.3	0.1	97
CC1=C(C#N)[C@@H](c2ccc(C#N)cc2S(C)(=O)=O)N(CC#N)C(=O)N1c1cccc(C(F)(F)F)c1 [Example 116, (4S)-3-(Cyanomethyl)-4-[4-cyano-2-(methylsulfonyl)phenyl]-6-methyl-2-oxo-1-[3-(trifluoromethyl)phenyl]-1,2,3,4-tetrahydropyrimidine-5-carbonitrile]	< 0.3	0.4	91
CCS(=O)(=O)c1cc(C#N)ccc1[C@@H]1C(C#N)=C(C)N(c2cccc(C(F)(F)F)c2)C(=O)N1C [Example 128, (4S)-4-[4-Cyano-2-(ethylsulfonyl)phenyl]-3,6-dimethyl-2-oxo-1-[3-(trifluoromethyl)phenyl]-1,2,3,4-tetrahydropyrimidine-5-carbonitrile]	< 0.3	0.9	78

The remaining lines, values ahead:

IC50 [1] [nM]	CLblood, calculated blood clearance (well stirred model) (rat hepatocytes) [L/h/kg]	Fmax, maximum possible bioavailability after oral administration (well-stirred) (rat hepatocytes) [%]	Structure (SMILES)
< 0.3	0.4	89	CN1CC2=C(C1=O)[C@@H](c1ccc(C#N)cc1S(C)(=O)=O)N(S(C)(=O)=O)C(=O)N2c1cccc(C(F)(F)F)c1 [Example 36, 4-{(4S)-6-Methyl-3-(methylsulfonyl)-2,5-dioxo-1-[3-(trifluoromethyl)phenyl]-2,3,4,5,6,7-hexahydro-1H-pyrrolo[3,4-d]pyrimidin-4-yl}-3-(methylsulfonyl)benzonitrile]
< 0.3	0.7	83	CC1=C(C#N)[C@@H](c2ccc(C#N)cc2S(C)(=O)=O)N(S(=O)(=O)c2ccc(F)cc2)C(=O)N1c1cccc(C(F)(F)F)c1 [Example 91]
< 0.3	1.2	72	CC1=C(C(=O)OCCO)[C@@H](c2ccc(C#N)cc2S(C)(=O)=O)N(S(C)(=O)=O)C(=O)N1c1cccc(C(F)(F)F)c1 [Example 144, 2-Hydroxyethyl (4S)-4-[4-cyano-2-(methylsulfonyl)phenyl]-6-methyl-3-(methylsulfonyl)-2-oxo-1-[3-(trifluoromethyl)phenyl]-1,2,3,4-tetrahydropyrimidine-5-carboxylate]
